Solubility data for ten compounds are collected here from ChEMBL document CHEMBL4765342, “Substituted benzothiophene and benzofuran derivatives as a novel class of bone morphogenetic Protein-2 upregulators: Synthesis, anti-osteoporosis efficacies in ovariectomized rats and a zebrafish model, and ADME properties” (Eur J Med Chem, 2020).

Holding throughout (format): physicochemical
The nature of series [1]: Solubility in PBS buffer at pH 7.4 assessed as precipitation of compound at 625 nM. The following applies: pH 7.4, 0.625 µM.
A short description of series [2]: Solubility in PBS buffer at pH 7.4 assessed as precipitation of compound at 1250 nM. The settings on record: pH 7.4, 1.25 µM.
Series [3] can be described thus: Solubility in PBS buffer at pH 7.4 assessed as precipitation of compound at 10000 nM. The settings on record: pH 7.4, 10 µM.
Series [4] can be described thus: Solubility in PBS buffer at pH 7.4 assessed as precipitation of compound at 156.25 nM. The settings on record: pH 7.4, 0.15625 µM.
Series [5] is described as follows: Solubility in PBS buffer at pH 7.4 assessed as precipitation of compound at 312.5 nM. The settings on record: pH 7.4, 0.3125 µM.
The nature of series [6]: Solubility in PBS buffer at pH 7.4 assessed as precipitation of compound at 5000 nM. The following applies: pH 7.4, 5 µM.
Series [7] in a line: Solubility in PBS buffer at pH 7.4 assessed as precipitation of compound at 2500 nM. The following applies: pH 7.4, 2.5 µM.

Each structure is given as a SMILES string.

With `COc1ccc2cc(C(=O)OCCN3CCOCC3)oc2c1`, the solubility result was “Soluble” in series [1]; “Soluble” in series [2]; “Insoluble” in series [3]; “Soluble” in series [4]; “Soluble” in series [5]; “Soluble” in series [6]. For the same compound, the solubility entry in series [7] was “Soluble”.

Consider `CN(C)CCNC(=O)c1cc2cc3c(cc2s1)OCO3`, for which the solubility entry in series [1] was “Soluble”; in series [2] it was “Insoluble”; in series [3] it was “Insoluble”; in series [4] it was “Soluble”; in series [5], “Soluble”; in series [6], “Insoluble”. The solubility result in series [7] was “Insoluble”.

Take `CCCCOC(=O)c1cc2ccc(OC)cc2s1`: the solubility entry in series [1] was “Insoluble”; in series [2] it was “Insoluble”; in series [3], “Insoluble”; in series [4], “Soluble”; in series [5] it was “Soluble”; in series [6], “Insoluble”. In series [7], the solubility entry is “Insoluble”.

With `COc1ccc2cc(C(=O)OCCCN(C)C)oc2c1`, the solubility entry in series [1] is recorded as “Soluble”; in series [2] it was “Soluble”; in series [3], “Insoluble”; in series [4], “Soluble”; in series [5] it was “Soluble”; in series [6], “Soluble”. Besides, the solubility result in series [7] is “Soluble”.

Take `COc1ccc2cc(C(=O)OCCP(=O)(O)O)oc2c1`: the solubility entry in series [1], in series [2], in series [3], in series [4], in series [5] and in series [6] was “Soluble” throughout. Further, the solubility result in series [7] is reported as “Soluble”.

For the compound `CN(C)CCOC(=O)c1cc2cc3c(cc2s1)OCO3`, the solubility entry is reported as “Soluble” in series [1]; “Soluble” in series [2]; “Insoluble” in series [3]; “Soluble” in series [4]; “Soluble” in series [5]; “Insoluble” in series [6]. In series [7], the solubility result was “Insoluble”.

Take `COc1ccc2cc(C(=O)OCCN(C)C)oc2c1`: the solubility entry in series [1] is “Soluble”; in series [2] it was “Soluble”; in series [3], “Insoluble”; in series [4], “Soluble”; in series [5], “Soluble”; in series [6], “Soluble”. For the same compound, in series [7], the solubility entry is listed as “Soluble”.

Turning to `CN(C)CCCOC(=O)c1cc2cc3c(cc2s1)OCO3`, the solubility result is given as “Soluble” in series [1]; “Insoluble” in series [2]; “Insoluble” in series [3]; “Soluble” in series [4]; “Soluble” in series [5]; “Insoluble” in series [6]. Moreover, in series [7], the solubility result was “Insoluble”.

Turning to `COc1ccc2cc(C(=O)NCCN(C)C)oc2c1`, the solubility result in series [1] is given as “Soluble”; in series [2], “Soluble”; in series [3], “Insoluble”; in series [4], “Soluble”; in series [5], “Soluble”; in series [6] it was “Insoluble”. Further, in series [7], the solubility entry was “Soluble”.

Turning to `O=C(OCCN1CCOCC1)c1cc2cc3c(cc2s1)OCO3`, the solubility result in series [1] is listed as “Soluble”; in series [2] it was “Soluble”; in series [3], “Insoluble”; in series [4] it was “Soluble”; in series [5] it was “Soluble”; in series [6], “Insoluble”. Moreover, the solubility result in series [7] is “Insoluble”.
